pIC50: −log10 of the molar value. Converted amounts (≈) assume the structure as drawn.
Key:
[1] = biological target: Reduced folate carrier (Homo sapiens); assay: Ability to compete with methotrexate transport in human HeLa cells was determined; details: read-out: I50
Enterococcus faecium [2] = assay: The compound was tested for inhibition of growth of Streptococcus faecium (ATCC 8043) at 0.1 ng/ml; format: functional, organism-based; details: read-out: I 50
Lacticaseibacillus casei [3] = assay: (§1) The compound was tested for inhibition of growth of Lactobacillus casei (ATCC 7469) at 0.1 ng/ml; format: functional, organism-based; details: read-out: I 50
Dihydrofolate reductase [4] = biological target: T1, Dihydrofolate reductase (Homo sapiens, UniProt P00374); assay: Ability to inhibit human HeLa cell dihydrofolate reductase in vitro was determined
T1 sequence (P00374 whole entry): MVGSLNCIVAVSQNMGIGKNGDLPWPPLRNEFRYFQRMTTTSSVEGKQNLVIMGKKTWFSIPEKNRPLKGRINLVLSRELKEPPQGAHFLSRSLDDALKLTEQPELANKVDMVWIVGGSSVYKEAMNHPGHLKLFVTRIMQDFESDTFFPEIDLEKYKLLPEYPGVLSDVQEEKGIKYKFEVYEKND

Lacticaseibacillus casei [5] = assay: The compound was tested for inhibition of growth of Lactobacillus casei at 0.1 ng/ml (ATCC 7469); format: functional, organism-based; details: read-out: I 50
[6] = biological target: Reduced folate carrier (Homo sapiens); assay: Ability to compete with methotrexate transport in human HeLa cells was determined; details: read-out: I50; remark: listed apart in the source
Enterococcus faecium [7] = assay: The compound was tested for inhibition of growth of Streptococcus faecium (ATCC 8043) at 2.0 ng/ml; format: functional
Thymidylate synthase = biological target: T2, Thymidylate synthase (Lactobacillus casei, UniProt P00469); assay: Ability to inhibit Lactobacillus casei thymidylate synthase in vitro was determined; design: species or system Lacticaseibacillus casei; details: read-out: I50
T2 sequence (P00469 whole entry): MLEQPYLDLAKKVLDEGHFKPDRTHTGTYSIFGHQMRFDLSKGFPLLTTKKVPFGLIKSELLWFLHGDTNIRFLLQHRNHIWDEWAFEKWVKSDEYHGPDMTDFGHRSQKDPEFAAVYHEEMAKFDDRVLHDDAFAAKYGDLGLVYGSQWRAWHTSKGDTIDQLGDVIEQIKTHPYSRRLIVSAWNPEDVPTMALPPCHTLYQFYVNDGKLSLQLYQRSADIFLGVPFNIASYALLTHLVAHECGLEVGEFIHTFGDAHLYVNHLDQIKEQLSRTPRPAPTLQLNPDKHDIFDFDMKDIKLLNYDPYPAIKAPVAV

Dihydrofolate reductase [8] = biological target: Dihydrofolate reductase (Lactobacillus casei, UniProt P00381); assay: Ability to inhibit Lactobacillus casei dihydrofolate reductase in vitro was determined
Sequence of Dihydrofolate reductase (Lactobacillus casei, UniProt P00381) (P00381 whole entry): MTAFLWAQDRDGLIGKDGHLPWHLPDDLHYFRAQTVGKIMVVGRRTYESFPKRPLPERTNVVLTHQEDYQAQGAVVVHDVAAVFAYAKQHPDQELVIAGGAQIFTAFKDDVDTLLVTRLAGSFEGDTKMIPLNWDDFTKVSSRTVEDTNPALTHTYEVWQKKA

Lacticaseibacillus casei [9] = assay: as §1; format: functional

`Nc1nc(N)c2nc(CSc3ccc(C(=O)NC(CCC(=O)O)C(=O)O)cc3)cnc2n1` (stereo unspecified) showed a pIC50 [1] of 5.57.

Molecule `Nc1nc(N)c2nc(CCSc3ccc(C(=O)O)cc3)cnc2n1` has an IC50 (Enterococcus faecium [2]) of 0.1 µg/mL (≈ 0.292 µM) and an IC50 (Lacticaseibacillus casei [3]) of 0.1 µg/mL (≈ 0.292 µM).

Work on `Nc1nc(N)c2nc(COc3ccc(C(=O)NC(CCC(=O)O)C(=O)O)cc3)cnc2n1` (stereo unspecified) yielded a pIC50 (Dihydrofolate reductase [4]) of 6.13.

Molecule `COC(=O)c1ccc(SCCc2cnc3nc(N)nc(N)c3n2)cc1` has an IC50 (Lacticaseibacillus casei [5]) of 0.4 µg/mL (≈ 1.12 µM) and an IC50 (Enterococcus faecium [2]) of 0.016 µg/mL (≈ 0.0449 µM).

`Nc1nc(N)c2nc(CCSc3ccc(C(=O)NC(CCC(=O)O)C(=O)O)cc3)cnc2n1` (stereo unspecified) gave a pIC50 [6] of 4.60, an inhibition at 0.002 µg/mL (Enterococcus faecium [7]) of 50% and a pIC50 (Thymidylate synthase) of 4.22. It also gave a pIC50 (Dihydrofolate reductase [8]) of 6.40 and an inhibition at 0.0001 µg/mL (Lacticaseibacillus casei [9]) of 50%.
